Measurements reported in US9850225B2, “Compounds useful as immunomodulators” (BRISTOL-MYERS SQUIBB COMPANY, priority 2014, dated 2017).

Each compound was assayed against PD-1/PD-L1 interaction (PD-1-Ig / PD-L1-His) (Homo sapiens (Human), UniProt Q9NZQ7) (assay: PD-1/PD-L1 Homogenous Time-Resolved Fluorescence (HTRF) binding assay). Details: PD-1/PD-L1 HTRF binding assay; value given as range class; read-out: Range or IC50.
Procedure, shortened: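 Human PD-L1-His (10 nM final) was pre-incubated with inhibitor for 15 min, then PD-1-Ig (20 nM final) was added for a further 15 min in dPBS with 0.1% BSA and 0.05% Tween-20. Binding was detected by HTRF using Eu-cryptate anti-Ig (1 nM) and APC anti-His (20 nM).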

Sequence of PD-1/PD-L1 interaction (PD-1-Ig / PD-L1-His) (Q9NZQ7 other isoform, or with tags, fused parts or gaps): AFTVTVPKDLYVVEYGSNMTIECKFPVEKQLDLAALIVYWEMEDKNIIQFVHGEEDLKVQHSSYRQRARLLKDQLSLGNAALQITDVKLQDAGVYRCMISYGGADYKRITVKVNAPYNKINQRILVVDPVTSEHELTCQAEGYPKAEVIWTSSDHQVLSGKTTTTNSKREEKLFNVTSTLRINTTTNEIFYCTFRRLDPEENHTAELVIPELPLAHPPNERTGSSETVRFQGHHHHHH

Row | Structure (SMILES) | IC50 [nM]
1 | CCOc1cc(OCc2cccc(-c3ccccc3)c2C)ccc1CNCCNC(C)=O [Example 1044, N-(2-((2-ethoxy-4-((2-methyl-[1,1′-biphenyl]-3-yl)methoxy)benzyl)amino)ethyl)acetamide] | 100 to 20000
2 | COc1cccc(COc2cc(OCc3cccc(-c4ccccc4)c3C)ccc2CNCCNC(C)=O)c1 [Example 1086, N-(2-((2-((3-methoxybenzyl)oxy)-4-((2-methyl-[1,1′-biphenyl]-3-yl)methoxy)benzyl)amino)ethyl)acetamide] | 100 to 20000
3 | Cc1c(COc2ccc(CN3CCCC[C@H]3C(=O)O)c(OCc3cccc(C#N)c3)c2Cl)cccc1-c1ccccc1 [Example 1233, (S)-1-(3-chloro-2-(3-cyanobenzyloxy)-4-((2-methylbiphenyl-3-yl)methoxy)benzyl)piperidine-2-carboxylic acid] | 100 to 20000
4 | Cc1c(COc2cc(OCc3cncc(C#N)c3)c(CN3CCCC[C@H]3C(=O)NS(=O)(=O)N3CCN(C)CC3)cc2Cl)cccc1-c1ccc2c(c1)OCCO2 [Example 1262, (S)-1-(5-chloro-2-((5-cyanopyridin-3-yl)methoxy)-4-((3-(2,3-dihydrobenzo[b][1,4]dioxin-6-yl)-2-methylbenzyl)oxy)benzyl)-N-((4-methylpiperazin-1-yl)sulfonyl)piperidine-2-carboxamide] | 10 to 100
5 | Cc1cc(CN2CCCC[C@H]2C(=O)O)c(OCc2cccc(C#N)c2)cc1OCc1cccc(-c2ccc3c(c2)OCCO3)c1C [Example 1268, (S)-1-(2-((3-cyanobenzyl)oxy)-4-((3-(2,3-dihydrobenzo[b][1,4]dioxin-6-yl)-2-methylbenzyl)oxy)-5-methylbenzyl)piperidine-2-carboxylic acid] | 0.6 to 10
6 | CSC[C@H](NCc1cc(Cl)c(OCc2cccc(-c3ccc4c(c3)OCCO4)c2C)cc1OCc1cccc(C#N)c1)C(=O)O [Example 1160, (R)-2-((5-chloro-2-((3-cyanobenzyl)oxy)-4-((3-(2,3-dihydrobenzo[b][1,4]dioxin-6-yl)-2-methylbenzyl)oxy)benzyl)amino)-3-(methylthio)propanoic acid] | 10 to 100
7 | Cc1cc(CN[C@](C)(CO)C(=O)O)c(OCc2cncc(C#N)c2)cc1OCc1cccc(-c2ccc3c(c2)OCCO3)c1C#N [Example 1311, (R)-2-(4-(2-cyano-3-(2,3-dihydrobenzo[b][1,4]dioxin-6-yl)benzyloxy)-2-((5-cyanopyridin-3-yl)methoxy)-5-methylbenzylamino)-3-hydroxy-2-methylpropanoic acid] | 0.6 to 10
8 | Cc1c(COc2cc(OCc3cccc(C#N)c3)c(CN[C@@H](CC[S+](C)[O-])C(=O)O)cc2Cl)cccc1-c1ccc2c(c1)OCCO2 (stereo partly drawn) [Example 1174, (2S)-2-((5-chloro-2-((3-cyanobenzyl)oxy)-4-((3-(2,3-dihydrobenzo[b][1,4]dioxin-6-yl)-2-methylbenzyl)oxy)benzyl)amino)-4-(methylsulfinyl)butanoic acid] | 0.6 to 10
9 | Cc1c(COc2ccc(CN[C@](C)(CO)C(=O)O)c(OCc3cccc(C(N)=O)c3)c2)cccc1-c1ccc2c(c1)OCCO2 [Example 1326, (R)-2-((2-((3-carbamoylbenzyl)oxy)-4-((3-(2,3-dihydrobenzo[b][1,4]dioxin-6-yl)-2-methylbenzyl)oxy)benzyl)amino)-3-hydroxy-2-methylpropanoic acid] | 0.6 to 10
10 | COc1cc(OCc2cccc(-c3ccccc3)c2C)cc(OCc2cccc(C#N)c2)c1CNC[C@@H](O)CC(=O)O [Example 1133, (S)-4-((2-((3-cyanobenzyl)oxy)-6-methoxy-4-((2-methyl-[1,1′-biphenyl]-3-yl)methoxy)benzyl)amino)-3-hydroxybutanoic acid] | 0.6 to 10
11 | Cc1c(COc2cc(OCc3cccc(C#N)c3)c(CN(C)[C@@H](CO)C(=O)O)cc2Cl)cccc1-c1ccc2c(c1)OCCO2 [Example 1183, (S)-2-((5-chloro-2-((3-cyanobenzyl)oxy)-4-((3-(2,3-dihydrobenzo[b][1,4]dioxin-6-yl)-2-methylbenzyl)oxy)benzyl)(methyl)amino)-3-hydroxypropanoic acid] | 0.6 to 10
12 | Cc1c(COc2cc(OCc3cncc(C#N)c3)c(CNCCO)cc2Br)cccc1-c1ccc2c(c1)OCCO2 [Example 1322, 5-((4-bromo-5-(3-(2,3-dihydrobenzo[b][1,4]dioxin-6-yl)-2-methylbenzyloxy)-2-((2-hydroxyethylamino)methyl)phenoxy)methyl)nicotinonitrile] | 0.6 to 10
13 | Cc1cc(CNC[C@@H](O)CC(=O)O)c(OCc2cncc(C#N)c2)cc1OCc1cccc(-c2ccc3c(c2)OCCO3)c1C#N [Example 1307, (S)-4-(4-(2-cyano-3-(2,3-dihydrobenzo[b][1,4]dioxin-6-yl)benzyloxy)-2-((5-cyanopyridin-3-yl)methoxy)-5-methylbenzylamino)-3-hydroxybutanoic acid] | 0.6 to 10

Continued, values first:

Row | IC50 [nM] | Structure (SMILES)
14 | 0.6 to 10 | Cc1c(COc2cc(OCc3cccc(C#N)c3)c(CNC3(C(=O)O)CC3)cc2Cl)cccc1-c1ccc2c(c1)OCCO2 [Example 1177, 1-((5-chloro-2-((3-cyanobenzyl)oxy)-4-((3-(2,3-dihydrobenzo[b][1,4]dioxin-6-yl)-2-methylbenzyl)oxy)benzyl)amino)cyclopropanecarboxylic acid]
15 | 0.6 to 10 | Cc1c(COc2cc(OCc3cncc(C#N)c3)c(CN3CCCC[C@H]3C(=O)O)cc2Br)cccc1-c1ccc2c(c1)OCCO2 [Example 1319, (S)-1-(5-bromo-2-((5-cyanopyridin-3-yl)methoxy)-4-(3-(2,3-dihydrobenzo[b][1,4]dioxin-6-yl)-2-methylbenzyloxy)benzyl)piperidine-2-carboxylic acid]
16 | 0.6 to 10 | N#Cc1cccc(COc2cc(OCc3cccc(-c4ccc5c(c4)OCCO5)c3C#N)c(Br)cc2CN[C@@H](CO)C(=O)O)c1 [Example 1312, (S)-2-((5-bromo-4-((2-cyano-3-(2,3-dihydrobenzo[b][1,4]dioxin-6-yl)benzyl)oxy)-2-((3-cyanobenzyl)oxy)benzyl)amino)-3-hydroxypropanoic acid]
17 | 0.6 to 10 | COc1cc(OCc2cccc(-c3ccccc3)c2C)cc(OCc2cccc(C#N)c2)c1CN[C@H](CO)C(=O)O [Example 1134, (R)-2-((2-((3-cyanobenzyl)oxy)-6-methoxy-4-((2-methyl-[1,1′-biphenyl]-3-yl)methoxy)benzyl)amino)-3-hydroxypropanoic acid]
18 | 0.6 to 10 | Cc1c(COc2ccc(CN[C@@H](C(=O)O)[C@H](C)O)c(OCc3cccc(C#N)c3)c2)cccc1-c1ccccc1 [Example 1015, (2R,3S)-2-((2-((3-cyanobenzyl)oxy)-4-((2-methyl-[1,1′-biphenyl]-3-yl)methoxy)benzyl)amino)-3-hydroxybutanoic acid]
19 | 0.6 to 10 | Cc1c(COc2cc(OCc3cncc(C#N)c3)c(CN3CCCC[C@H]3C(=O)NS(=O)(=O)C3CC3)cc2Cl)cccc1-c1ccc2c(c1)OCCO2 [Example 1259, (S)-1-(5-chloro-2-((5-cyanopyridin-3-yl)methoxy)-4-((3-(2,3-dihydrobenzo[b][1,4]dioxin-6-yl)-2-methylbenzyl)oxy)benzyl)-N-(cyclopropylsulfonyl)piperidine-2-carboxamide]
20 | 0.6 to 10 | CCOC(=O)Nc1cncc(COc2cc(OCc3cccc(-c4ccc5c(c4)OCCO5)c3C)c(Cl)cc2C=O)c1 [Example 3008, ethyl (5-((4-chloro-5-((3-(2,3-dihydrobenzo[b][1,4]dioxin-6-yl)-2-methylbenzyl)oxy)-2-formylphenoxy)methyl)pyridin-3-yl)carbamate]
21 | 0.6 to 10 | Cc1c(COc2cc(OCc3cncc(C#N)c3)c(CN[C@@H](CCCCN)C(=O)O)cc2Cl)cccc1-c1ccc2c(c1)OCCO2 [Example 2004, (S)-6-amino-2-((5-chloro-2-((5-cyanopyridin-3-yl)methoxy)-4-((3-(2,3-dihydrobenzo[b][1,4]dioxin-6-yl)-2-methylbenzyl)oxy)benzyl)amino)hexanoic acid]
22 | 0.6 to 10 | CC(=O)NCCNCc1cc(Cl)c(OCc2cccc(-c3ccc4c(c3)OCCO4)c2C)cc1OCc1cccc(C#N)c1 [Example 1247, N-(2-((5-chloro-2-((3-cyanobenzyl)oxy)-4-((3-(2,3-dihydrobenzo[b][1,4]dioxin-6-yl)-2-methylbenzyl)oxy)benzyl)amino)ethyl)acetamide]
